Measurements: article PMC6844378, “Structure activity relationship studies on Amb639752: toward the identification of a common pharmacophoric structure for DGKα inhibitors” (Journal of Enzyme Inhibition and Medicinal Chemistry, 2019)

What was measured:
[1] = target: DGKα (Homo sapiens, UniProt P23743); assay: Isoform specificity, DGKα homogenates of transfected 293T cells; format: biochemical; settings: 100 µM; 293T homogenates
Procedure: (§1) 293T cells were transiently transfected with indicated DGK isoform plasmid DNA using Lipofectamine 3000, Invitrogen (Carlsbad, CA). Forty eight hours after transfection, cells were harvested and homogenised with a 29 G-needle using 500 µL of homogenate buffer for each dish and immediately stored in aliquots at –80 °C. Cells transfected with empty vector were used as controls, overexpressed DGK has an activity >50 folds the endogenous.
(§2) Essentionally, the same procedure was followed as reported previously in Velnati et al.[9] In brief, DGK activity was assayed by measuring initial velocities (5 min at 27 °C) in presence of saturating substrate concentrations. Reaction conditions: 0.9 µg/µL 1,2-dioleoyl-sn-glycerol, 5 mM ATP, 0.01 µCi/µL [γ^32P]-ATP, 1 mM sodium orthovanadate, 10 mM MgCl2, 1.2 mM EGTA in 7.5 mM Hepes pH 8[12]. Reaction mixture is assembled mixing enzyme (24.5 µL of homogenate), 100× inhibitor or DMSO (0.5 µL), 5× ATP solution (10 µL of 25 mM ATP, 0.05 µCi/µL [γ^32P]-ATP (Perkin-Elmer, Milan, Italy), 5 mM sodium orthovanadate, 50 mM MgCl2), and 3.3× DAG solution (15 µL of 3 µg/µL 1,2-dioleoyl-sn-glycerol resuspended by sonication in 4 mM EGTA in 25 mM Hepes pH 8). […] TLC was run 10 cm and dried before radioactive signals were detected by GS-250 molecular imager and was quantified by quantity one (Bio-Rad, Hercules, CA) software assuring the absence of saturated spots. […]

[2] = target: T1, DGKζ (Homo sapiens, UniProt Q13574); assay: Isoform specificity, DGKζ homogenates of transfected 293T cells; format: biochemical; settings: 100 µM; 293T homogenates
T1 construct: expressed in transfected cells; host or cells: 293T cells, transient transfection (Lipofectamine 3000), crude homogenate
Procedure: as §1, §2

[3] = system: serotonin receptors; assay: Superoxide anion production: serotonin effect on PMA-induced oxidative burst in monocytes; format: cell-based; settings: drugs 10 µM, 1 h; serotonin 1 µM; PMA 1 µM 30 min; human monocytes
Procedure: Human monocytes were isolated from healthy anonymous human buffy coats (provided by the Transfusion Service of Ospedale Maggiore della Carità, Novara, Italy) by the standard technique of dextran sedimentation and Histopaque (density = 1.077 g cm^3, Sigma-Aldrich, Milano, Italy) gradient centrifugation (400×g, 30 min, room temperature) and recovered by fine suction at the interface, as described previously. Purified monocytes populations were obtained by adhesion (90 min, 37 °C, 5% CO2) in serum-free RPMI 1640 medium (Sigma-Aldrich, Milano, Italy) supplemented with 2 mM glutamine and antibiotics. Cell viability (trypan blue dye exclusion) was usually >98%.
All the experiments were performed in triplicate using cells isolated from each single donor.
Monocytes (250,000 cells/well) were treated for 1 h with the indicated drugs (10 µM) with or without serotonin (1 µM). Then, cells were stimulated with phorbol 12-myristate 13-acetate (PMA; Sigma-Aldrich, Milano, Italy) 1 µM for 30 min. PMA is a well-known stimulus that induces a strong and significant respiratory burst via PKC activation. Superoxide anion production was then evaluated by the superoxide dismutase (SOD)-sensitive cytochrome C (CytC) reduction assay and expressed as nmoles CytC reduced/10^6 cells/30 min, using an extinction coefficient of 21.1 mM. To avoid interference with spectrophotometrical recordings, cells were incubated with RPMI 1640 without phenol red, antibiotics, and FBS.
To this purpose, we measured the effect of serotonin on PMA-induced oxidative burst in human monocytes. As previously shown, 1 µM serotonin reverses the oxidative burst to control values.
Figure 8. […] Results are expressed as n moles of reduced cytochrome C/10^6 cells. Data are means ± SEM of 10 independent experiments performed in triplicate.

Sequence of DGKα (P23743 whole entry, canonical isoform): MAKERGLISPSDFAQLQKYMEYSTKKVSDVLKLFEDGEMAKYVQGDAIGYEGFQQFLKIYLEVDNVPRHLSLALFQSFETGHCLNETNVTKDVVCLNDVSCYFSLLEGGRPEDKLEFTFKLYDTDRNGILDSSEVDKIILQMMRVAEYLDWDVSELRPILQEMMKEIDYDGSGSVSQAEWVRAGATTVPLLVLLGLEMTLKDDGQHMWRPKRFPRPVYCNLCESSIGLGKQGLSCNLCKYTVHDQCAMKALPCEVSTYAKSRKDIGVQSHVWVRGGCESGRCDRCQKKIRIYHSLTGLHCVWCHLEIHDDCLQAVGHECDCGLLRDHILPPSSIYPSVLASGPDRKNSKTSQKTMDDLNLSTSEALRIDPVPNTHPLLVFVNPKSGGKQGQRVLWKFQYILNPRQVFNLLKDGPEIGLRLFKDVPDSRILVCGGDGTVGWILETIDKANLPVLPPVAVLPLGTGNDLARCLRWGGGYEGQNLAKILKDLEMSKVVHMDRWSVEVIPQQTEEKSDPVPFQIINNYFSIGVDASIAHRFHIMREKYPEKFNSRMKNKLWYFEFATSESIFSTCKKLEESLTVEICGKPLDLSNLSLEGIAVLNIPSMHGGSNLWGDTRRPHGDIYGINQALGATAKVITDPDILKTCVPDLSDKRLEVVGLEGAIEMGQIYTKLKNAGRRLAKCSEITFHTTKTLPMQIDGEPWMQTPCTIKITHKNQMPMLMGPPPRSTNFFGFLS
T1 sequence (Q13574 whole entry, species assumed, canonical isoform): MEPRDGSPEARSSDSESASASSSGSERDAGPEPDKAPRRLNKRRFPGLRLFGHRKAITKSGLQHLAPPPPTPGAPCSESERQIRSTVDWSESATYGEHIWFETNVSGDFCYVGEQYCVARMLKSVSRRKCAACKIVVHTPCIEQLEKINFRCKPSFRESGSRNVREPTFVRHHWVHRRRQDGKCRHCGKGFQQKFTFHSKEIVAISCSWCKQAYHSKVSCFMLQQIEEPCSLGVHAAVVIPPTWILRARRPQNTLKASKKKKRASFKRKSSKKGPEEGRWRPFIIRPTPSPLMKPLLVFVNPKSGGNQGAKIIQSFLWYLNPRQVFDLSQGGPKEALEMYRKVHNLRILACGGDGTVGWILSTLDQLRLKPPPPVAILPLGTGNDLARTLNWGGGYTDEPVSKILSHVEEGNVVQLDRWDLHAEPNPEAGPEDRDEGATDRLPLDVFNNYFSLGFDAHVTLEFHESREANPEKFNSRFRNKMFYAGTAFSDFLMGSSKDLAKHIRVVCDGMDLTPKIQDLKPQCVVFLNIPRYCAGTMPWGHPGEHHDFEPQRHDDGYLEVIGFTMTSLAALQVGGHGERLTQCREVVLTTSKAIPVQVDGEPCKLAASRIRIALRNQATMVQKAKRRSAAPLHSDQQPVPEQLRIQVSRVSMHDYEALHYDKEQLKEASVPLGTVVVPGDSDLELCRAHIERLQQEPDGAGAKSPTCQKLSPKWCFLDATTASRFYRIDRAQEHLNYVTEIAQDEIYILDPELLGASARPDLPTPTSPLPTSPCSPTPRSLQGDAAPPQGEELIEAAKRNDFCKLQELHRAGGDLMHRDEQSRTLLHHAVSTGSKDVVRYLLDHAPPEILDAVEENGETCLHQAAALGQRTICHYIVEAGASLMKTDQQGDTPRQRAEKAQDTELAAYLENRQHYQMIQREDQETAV

With `Cc1ccc2c(C(=O)CN3CCN(C(=O)c4ccco4)CC3)c(C)[nH]c2c1` [Amb639752] the “inhibition of DGKα activity” value [1] was “completely inhibit”, the “effect on DGKζ activity” value [2] was “do not have significant effects” and the “effect on serotonin action on PMA-induced oxidative burst” value [3] was “had no effect”.
